Measurements as given in patent publication US8222278B2, “Treatment of attention-deficit/hyperactivity disorder” (Abbott Laboratories, priority 2008, dated 2012).

Test system: adults with ADHD
Experiment: Study A: treatment-emergent adverse events (safety dataset)
Method: During each visit, blood pressure, heart rate, weight, medication accountability and tolerability, and adverse effects were assessed.
The safety dataset consisted of all subjects who took at least one dose of study drug. The reasons for discontinuation and the treatment-emergent adverse events were summarized by the treatment under which the discontinuation or event was reported.
Treatment-emergent adverse events were those that began or worsened following the first dose of study drug in Period 1. Adverse event monitoring was conducted at each study visit and until 30 days following discontinuation of study drug. Other routine safety assessments included vital signs, electrocardiograms, physical examinations, brief neurological examinations and laboratory tests.

## Clc1cc(N2C[C@@H]3CN[C@@H]3C2)cnc1Cl [ABT-894, 3-(5,6-Dichloro-pyridin-3-yl)-1S,5S-3,6-diazabicyclo[3.2.0]heptane]
ABT-894 1 mg QD, N = 46
  Any Adverse Event, % of subjects: (69.6) %
  Any Adverse Event, number of subjects: 32 subjects
  Decreased appetite, % of subjects: (0) %
  Decreased appetite, number of subjects: 0 subjects
  Diarrhea, % of subjects: (0) %
  Diarrhea, number of subjects: 0 subjects
  Dizziness, % of subjects: (4.3) %
  Dizziness, number of subjects: 2 subjects
  Dry mouth, % of subjects: (4.3) %
  Dry mouth, number of subjects: 2 subjects
  Fatigue, % of subjects: (4.3) %
  Fatigue, number of subjects: 2 subjects
  Feeling hot and cold, % of subjects: (0) %
  Feeling hot and cold, number of subjects: 0 subjects
  Feeling jittery, % of subjects: (0) %
  Feeling jittery, number of subjects: 0 subjects
  Headache, % of subjects: (8.7) %
  Headache, number of subjects: 4 subjects
  Lethargy, % of subjects: (0) %
  Lethargy, number of subjects: 0 subjects
  Muscle Strain, % of subjects: (6.5) %
  Muscle Strain, number of subjects: 3 subjects
  Nasal congestion, % of subjects: (0) %
  Nasal congestion, number of subjects: 0 subjects
  Nausea, % of subjects: (4.3) %
  Nausea, number of subjects: 2 subjects
  Parathesia, % of subjects: (0) %
  Parathesia, number of subjects: 0 subjects
  Sleep disturbances, % of subjects: (4.3) %
  Sleep disturbances, number of subjects: 2 subjects
  Somnolence, % of subjects: (13.0) %
  Somnolence, number of subjects: 6 subjects
  Upper RTI, % of subjects: (2.2) %
  Upper RTI, number of subjects: 1 subjects
  Vomiting, % of subjects: (0) %
  Vomiting, number of subjects: 0 subjects
ABT-894 2 mg QD, N = 42
  Any Adverse Event, % of subjects: (61.9) %
  Any Adverse Event, number of subjects: 26 subjects
  Decreased appetite, % of subjects: (0) %
  Decreased appetite, number of subjects: 0 subjects
  Diarrhea, % of subjects: (4.8) %
  Diarrhea, number of subjects: 2 subjects
  Dizziness, % of subjects: (9.5) %
  Dizziness, number of subjects: 4 subjects
  Dry mouth, % of subjects: (0) %
  Dry mouth, number of subjects: 0 subjects
  Fatigue, % of subjects: (2.4) %
  Fatigue, number of subjects: 1 subjects
  Feeling hot and cold, % of subjects: (0) %
  Feeling hot and cold, number of subjects: 0 subjects
  Feeling jittery, % of subjects: (0) %
  Feeling jittery, number of subjects: 0 subjects
  Headache, % of subjects: (11.9) %
  Headache, number of subjects: 5 subjects
  Lethargy, % of subjects: (0) %
  Lethargy, number of subjects: 0 subjects
  Muscle Strain, % of subjects: (0) %
  Muscle Strain, number of subjects: 0 subjects
  Nasal congestion, % of subjects: (0) %
  Nasal congestion, number of subjects: 0 subjects
  Nausea, % of subjects: (14.3) %
  Nausea, number of subjects: 6 subjects
  Parathesia, % of subjects: (0) %
  Parathesia, number of subjects: 0 subjects
  Sleep disturbances, % of subjects: (14.3) %
  Sleep disturbances, number of subjects: 6 subjects
  Somnolence, % of subjects: (0) %
  Somnolence, number of subjects: 0 subjects
  Upper RTI, % of subjects: (7.1) %
  Upper RTI, number of subjects: 3 subjects
  Vomiting, % of subjects: (2.4) %
  Vomiting, number of subjects: 1 subjects
ABT-894 4 mg BID, N = 46
  Any Adverse Event, % of subjects: (54.3) %
  Any Adverse Event, number of subjects: 25 subjects
  Decreased appetite, % of subjects: (0) %
  Decreased appetite, number of subjects: 0 subjects
  Diarrhea, % of subjects: (2.2) %
  Diarrhea, number of subjects: 1 subjects
  Dizziness, % of subjects: (2.2) %
  Dizziness, number of subjects: 1 subjects
  Dry mouth, % of subjects: (2.2) %
  Dry mouth, number of subjects: 1 subjects
  Fatigue, % of subjects: (8.7) %
  Fatigue, number of subjects: 4 subjects
  Feeling hot and cold, % of subjects: (0) %
  Feeling hot and cold, number of subjects: 0 subjects
  Feeling jittery, % of subjects: (0) %
  Feeling jittery, number of subjects: 0 subjects
  Headache, % of subjects: (8.7) %
  Headache, number of subjects: 4 subjects
  Lethargy, % of subjects: (0) %
  Lethargy, number of subjects: 0 subjects
  Muscle Strain, % of subjects: (0) %
  Muscle Strain, number of subjects: 0 subjects
  Nasal congestion, % of subjects: (6.5) %
  Nasal congestion, number of subjects: 3 subjects
  Nausea, % of subjects: (8.7) %
  Nausea, number of subjects: 4 subjects
  Parathesia, % of subjects: (0) %
  Parathesia, number of subjects: 0 subjects
  Sleep disturbances, % of subjects: (4.3) %
  Sleep disturbances, number of subjects: 2 subjects
  Somnolence, % of subjects: (4.3) %
  Somnolence, number of subjects: 2 subjects
  Upper RTI, % of subjects: (0) %
  Upper RTI, number of subjects: 0 subjects
  Vomiting, % of subjects: (2.2) %
  Vomiting, number of subjects: 1 subjects
ABT-894 4 mg QD, N = 40
  Any Adverse Event, % of subjects: (65.0) %
  Any Adverse Event, number of subjects: 26 subjects
  Decreased appetite, % of subjects: (5.0) %
  Decreased appetite, number of subjects: 2 subjects
  Diarrhea, % of subjects: (7.5) %
  Diarrhea, number of subjects: 3 subjects
  Dizziness, % of subjects: (10.0) %
  Dizziness, number of subjects: 4 subjects
  Dry mouth, % of subjects: (0) %
  Dry mouth, number of subjects: 0 subjects
  Fatigue, % of subjects: (5.0) %
  Fatigue, number of subjects: 2 subjects
  Feeling hot and cold, % of subjects: (0) %
  Feeling hot and cold, number of subjects: 0 subjects
  Feeling jittery, % of subjects: (0) %
  Feeling jittery, number of subjects: 0 subjects
  Headache, % of subjects: (12.5) %
  Headache, number of subjects: 5 subjects
  Lethargy, % of subjects: (2.5) %
  Lethargy, number of subjects: 1 subjects
  Muscle Strain, % of subjects: (0) %
  Muscle Strain, number of subjects: 0 subjects
  Nasal congestion, % of subjects: (0) %
  Nasal congestion, number of subjects: 0 subjects
  Nausea, % of subjects: (22.5) %
  Nausea, number of subjects: 9 subjects
  Parathesia, % of subjects: (0) %
  Parathesia, number of subjects: 0 subjects
  Sleep disturbances, % of subjects: (7.5) %
  Sleep disturbances, number of subjects: 3 subjects
  Somnolence, % of subjects: (0) %
  Somnolence, number of subjects: 0 subjects
  Upper RTI, % of subjects: (7.5) %
  Upper RTI, number of subjects: 3 subjects
  Vomiting, % of subjects: (10.0) %
  Vomiting, number of subjects: 4 subjects
Total ABT-894, N = 174
  Any Adverse Event, number of subjects: 109 subjects
  Decreased appetite, % of subjects: (1.1) %
  Decreased appetite, number of subjects: 2 subjects
  Diarrhea, % of subjects: (3.4) %
  Diarrhea, number of subjects: 6 subjects
  Dizziness, % of subjects: (6.3) %
  Dizziness, number of subjects: 11 subjects
  Dry mouth, % of subjects: (1.7) %
  Dry mouth, number of subjects: 3 subjects
  Fatigue, % of subjects: (5.2) %
  Fatigue, number of subjects: 9 subjects
  Feeling hot and cold, % of subjects: (0) %
  Feeling hot and cold, number of subjects: 0 subjects
  Feeling jittery, % of subjects: (0) %
  Feeling jittery, number of subjects: 0 subjects
  Headache, % of subjects: (10.3) %
  Headache, number of subjects: 18 subjects
  Lethargy, % of subjects: (0.6) %
  Lethargy, number of subjects: 1 subjects
  Muscle Strain, % of subjects: (1.7) %
  Muscle Strain, number of subjects: 3 subjects
  Nasal congestion, % of subjects: (1.7) %
  Nasal congestion, number of subjects: 3 subjects
  Nausea, number of subjects: 21 subjects
  Parathesia, % of subjects: (0) %
  Parathesia, number of subjects: 0 subjects
  Sleep disturbances, % of subjects: (7.5) %
  Sleep disturbances, number of subjects: 13 subjects
  Somnolence, % of subjects: (4.6) %
  Somnolence, number of subjects: 8 subjects
  Upper RTI, % of subjects: (4.0) %
  Upper RTI, number of subjects: 7 subjects
  Vomiting, % of subjects: (3.4) %
  Vomiting, number of subjects: 6 subjects
Adults with ADHD, all doses
  Safety and tolerability: generally was safe and well tolerated
